Results published in the kinase profiling compilation of Christmann-Franck et al. (2016).

What was measured:
Test in all cases: radiometric filter-binding kinase assay, Kinase HotSpot
Conditions in all cases: compound 0.5 µM; ATP 10 µM
EPHB4 (human) = EPHB4 (human) (UniProt P54760)
WNK3 (human) = WNK3 (human) (UniProt Q9BYP7)
WEE1 (human) = WEE1 (human) (UniProt P30291)
STK38 (human) = STK38 (human) (UniProt Q15208)
PRKACG (human) = PRKACG (human) (UniProt P22612)
MAPK9 (human) = MAPK9 (human) (UniProt P45984)
LRRK2 (human) = LRRK2 (human) (UniProt Q5S007)
IKBKE (human) = IKBKE (human) (UniProt Q14164)
IRAK4 (human) = IRAK4 (human) (UniProt Q9NWZ3)
CSNK1G1 (human) = CSNK1G1 (human) (UniProt Q9HCP0)
PTK6 (human) = PTK6 (human) (UniProt Q13882)
TSSK1B (human) = TSSK1B (human) (UniProt Q9BXA7)
ULK3 (human) = ULK3 (human) (UniProt Q6PHR2)
EPHA7 (human) = EPHA7 (human) (UniProt Q15375)
CHEK1 (human) = CHEK1 (human) (UniProt O14757)
NEK9 (human) = NEK9 (human) (UniProt Q8TD19)
NTRK1 (human) = NTRK1 (human) (UniProt P04629)
STK16 (human) = STK16 (human) (UniProt O75716)
PHKG2 (human) = PHKG2 (human) (UniProt P15735)
PRKACA (human) = PRKACA (human) (UniProt P17612)
MYO3B (human) = MYO3B (human) (UniProt Q8WXR4)
[1] = tested on: MKNK1 (human), Q9BUB5 [T385D; 165-205 del]
PAK2 (human) = PAK2 (human) (UniProt Q13177)
CSF1R (human) = CSF1R (human) (UniProt P07333)
ULK2 (human) = ULK2 (human) (UniProt Q8IYT8)
EPHB3 (human) = EPHB3 (human) (UniProt P54753)
PRKD3 (human) = PRKD3 (human) (UniProt O94806)
FLT3 (human) = FLT3 (human) (UniProt P36888)
PIM1 (human) = PIM1 (human) (UniProt P11309)
NEK1 (human) = NEK1 (human) (UniProt Q96PY6)
STK3 (human) = STK3 (human) (UniProt Q13188)
CDK9 CCNK (human) = CDK9 CCNK (human) (UniProt O75909+P50750)
LTK (human) = LTK (human) (UniProt P29376)
CDK3 CCNE1 (human) = CDK3 CCNE1 (human) (UniProt Q00526+P24864)
AKT2 (human) = AKT2 (human) (UniProt P31751)
CDK4 CCND1 (human) = CDK4 CCND1 (human) (UniProt P24385+P11802)
PKN2 (human) = PKN2 (human) (UniProt Q16513)
EPHA8 (human) = EPHA8 (human) (UniProt P29322)
CSNK2A2 (human) = CSNK2A2 (human) (UniProt P19784)
MAP3K7 TAB1 (human) = MAP3K7 TAB1 (human) (UniProt O43318+Q15750)
CAMK4 (human) = CAMK4 (human) (UniProt Q16566)
PRKCE (human) = PRKCE (human) (UniProt Q02156)

Chain of WNK3 (human) (Q9BYP7 whole entry, looked up): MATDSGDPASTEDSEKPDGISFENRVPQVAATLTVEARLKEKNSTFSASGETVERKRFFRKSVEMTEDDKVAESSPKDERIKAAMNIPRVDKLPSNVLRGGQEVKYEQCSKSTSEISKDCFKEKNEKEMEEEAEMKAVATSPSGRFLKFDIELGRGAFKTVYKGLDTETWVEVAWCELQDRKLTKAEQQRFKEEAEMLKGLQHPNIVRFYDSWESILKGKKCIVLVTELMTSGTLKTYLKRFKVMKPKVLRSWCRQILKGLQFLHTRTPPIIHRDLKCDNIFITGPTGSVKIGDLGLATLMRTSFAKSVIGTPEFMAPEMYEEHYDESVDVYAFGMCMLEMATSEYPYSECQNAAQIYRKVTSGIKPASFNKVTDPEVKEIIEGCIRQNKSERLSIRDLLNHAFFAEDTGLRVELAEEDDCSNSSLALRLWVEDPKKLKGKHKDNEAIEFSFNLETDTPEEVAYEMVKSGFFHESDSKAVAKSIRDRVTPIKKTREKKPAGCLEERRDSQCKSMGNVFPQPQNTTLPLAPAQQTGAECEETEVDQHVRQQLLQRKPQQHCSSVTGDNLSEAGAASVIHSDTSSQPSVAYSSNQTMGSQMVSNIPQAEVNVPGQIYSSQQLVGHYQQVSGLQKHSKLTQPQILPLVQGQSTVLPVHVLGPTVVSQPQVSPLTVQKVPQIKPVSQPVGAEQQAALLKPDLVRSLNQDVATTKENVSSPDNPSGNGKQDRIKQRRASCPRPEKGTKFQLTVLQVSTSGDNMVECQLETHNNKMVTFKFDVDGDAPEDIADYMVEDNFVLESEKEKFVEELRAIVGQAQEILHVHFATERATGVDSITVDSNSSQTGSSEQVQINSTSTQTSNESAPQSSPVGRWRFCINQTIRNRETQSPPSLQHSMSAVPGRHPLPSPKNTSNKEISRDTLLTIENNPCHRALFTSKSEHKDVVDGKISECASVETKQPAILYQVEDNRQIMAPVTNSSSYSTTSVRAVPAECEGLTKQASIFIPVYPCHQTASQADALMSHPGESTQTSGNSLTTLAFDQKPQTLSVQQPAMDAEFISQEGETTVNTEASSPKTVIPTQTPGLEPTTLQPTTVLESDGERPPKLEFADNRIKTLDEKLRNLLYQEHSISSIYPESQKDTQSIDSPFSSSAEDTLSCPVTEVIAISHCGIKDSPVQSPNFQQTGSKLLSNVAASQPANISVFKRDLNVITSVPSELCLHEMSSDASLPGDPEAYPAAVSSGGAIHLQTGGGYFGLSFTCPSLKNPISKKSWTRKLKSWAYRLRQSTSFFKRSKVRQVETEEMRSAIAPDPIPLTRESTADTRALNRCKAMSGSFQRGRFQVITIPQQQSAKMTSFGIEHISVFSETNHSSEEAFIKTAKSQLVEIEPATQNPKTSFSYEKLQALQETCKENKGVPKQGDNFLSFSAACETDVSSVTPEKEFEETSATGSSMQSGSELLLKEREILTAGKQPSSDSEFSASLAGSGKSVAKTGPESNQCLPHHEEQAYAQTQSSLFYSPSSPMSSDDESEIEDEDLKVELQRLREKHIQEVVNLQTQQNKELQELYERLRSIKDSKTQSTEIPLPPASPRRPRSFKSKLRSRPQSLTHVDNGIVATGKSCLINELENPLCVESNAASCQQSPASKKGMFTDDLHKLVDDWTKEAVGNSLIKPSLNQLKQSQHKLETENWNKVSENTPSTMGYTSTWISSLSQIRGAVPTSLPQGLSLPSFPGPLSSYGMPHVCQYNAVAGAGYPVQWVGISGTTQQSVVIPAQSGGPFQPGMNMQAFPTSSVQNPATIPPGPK
Chain of NEK9 (human) (Q8TD19 whole entry, looked up): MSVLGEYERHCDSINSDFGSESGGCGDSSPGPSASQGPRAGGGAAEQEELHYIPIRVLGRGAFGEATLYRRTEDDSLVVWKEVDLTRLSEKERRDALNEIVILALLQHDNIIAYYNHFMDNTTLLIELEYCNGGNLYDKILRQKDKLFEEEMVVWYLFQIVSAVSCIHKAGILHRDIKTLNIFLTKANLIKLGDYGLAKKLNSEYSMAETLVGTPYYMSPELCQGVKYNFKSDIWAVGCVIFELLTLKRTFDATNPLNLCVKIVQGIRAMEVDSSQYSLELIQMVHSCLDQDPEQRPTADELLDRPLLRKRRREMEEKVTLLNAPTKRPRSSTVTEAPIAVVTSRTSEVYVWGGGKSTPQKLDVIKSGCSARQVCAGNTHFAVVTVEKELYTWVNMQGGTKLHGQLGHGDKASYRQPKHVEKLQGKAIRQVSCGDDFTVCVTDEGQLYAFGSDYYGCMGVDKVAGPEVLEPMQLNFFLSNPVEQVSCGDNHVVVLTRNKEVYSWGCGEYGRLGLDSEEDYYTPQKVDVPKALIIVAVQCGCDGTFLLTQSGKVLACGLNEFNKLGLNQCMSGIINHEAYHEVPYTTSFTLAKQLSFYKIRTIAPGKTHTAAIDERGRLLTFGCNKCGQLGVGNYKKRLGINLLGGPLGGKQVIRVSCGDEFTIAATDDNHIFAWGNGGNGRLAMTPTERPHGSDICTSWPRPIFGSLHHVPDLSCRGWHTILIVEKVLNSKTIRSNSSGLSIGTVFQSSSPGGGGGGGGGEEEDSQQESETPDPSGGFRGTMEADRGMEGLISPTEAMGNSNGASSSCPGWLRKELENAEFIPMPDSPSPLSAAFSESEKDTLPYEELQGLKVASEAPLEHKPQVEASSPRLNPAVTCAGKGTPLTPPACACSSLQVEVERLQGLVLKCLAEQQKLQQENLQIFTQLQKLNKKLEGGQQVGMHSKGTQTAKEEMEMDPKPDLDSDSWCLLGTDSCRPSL
Chain of PHKG2 (human) (P15735 whole entry, looked up): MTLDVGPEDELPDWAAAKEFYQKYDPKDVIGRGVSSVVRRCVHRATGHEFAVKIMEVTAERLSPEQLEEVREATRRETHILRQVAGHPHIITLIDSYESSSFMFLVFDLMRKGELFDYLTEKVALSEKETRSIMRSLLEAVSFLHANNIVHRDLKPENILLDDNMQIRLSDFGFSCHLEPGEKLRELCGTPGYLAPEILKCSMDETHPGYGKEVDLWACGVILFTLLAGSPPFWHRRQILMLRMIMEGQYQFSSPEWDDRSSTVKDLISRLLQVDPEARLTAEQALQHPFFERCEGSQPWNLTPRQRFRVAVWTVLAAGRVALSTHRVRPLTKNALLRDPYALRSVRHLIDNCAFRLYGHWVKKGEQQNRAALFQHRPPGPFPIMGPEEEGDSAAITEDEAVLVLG
Chain of CSF1R (human) (P07333 whole entry, looked up): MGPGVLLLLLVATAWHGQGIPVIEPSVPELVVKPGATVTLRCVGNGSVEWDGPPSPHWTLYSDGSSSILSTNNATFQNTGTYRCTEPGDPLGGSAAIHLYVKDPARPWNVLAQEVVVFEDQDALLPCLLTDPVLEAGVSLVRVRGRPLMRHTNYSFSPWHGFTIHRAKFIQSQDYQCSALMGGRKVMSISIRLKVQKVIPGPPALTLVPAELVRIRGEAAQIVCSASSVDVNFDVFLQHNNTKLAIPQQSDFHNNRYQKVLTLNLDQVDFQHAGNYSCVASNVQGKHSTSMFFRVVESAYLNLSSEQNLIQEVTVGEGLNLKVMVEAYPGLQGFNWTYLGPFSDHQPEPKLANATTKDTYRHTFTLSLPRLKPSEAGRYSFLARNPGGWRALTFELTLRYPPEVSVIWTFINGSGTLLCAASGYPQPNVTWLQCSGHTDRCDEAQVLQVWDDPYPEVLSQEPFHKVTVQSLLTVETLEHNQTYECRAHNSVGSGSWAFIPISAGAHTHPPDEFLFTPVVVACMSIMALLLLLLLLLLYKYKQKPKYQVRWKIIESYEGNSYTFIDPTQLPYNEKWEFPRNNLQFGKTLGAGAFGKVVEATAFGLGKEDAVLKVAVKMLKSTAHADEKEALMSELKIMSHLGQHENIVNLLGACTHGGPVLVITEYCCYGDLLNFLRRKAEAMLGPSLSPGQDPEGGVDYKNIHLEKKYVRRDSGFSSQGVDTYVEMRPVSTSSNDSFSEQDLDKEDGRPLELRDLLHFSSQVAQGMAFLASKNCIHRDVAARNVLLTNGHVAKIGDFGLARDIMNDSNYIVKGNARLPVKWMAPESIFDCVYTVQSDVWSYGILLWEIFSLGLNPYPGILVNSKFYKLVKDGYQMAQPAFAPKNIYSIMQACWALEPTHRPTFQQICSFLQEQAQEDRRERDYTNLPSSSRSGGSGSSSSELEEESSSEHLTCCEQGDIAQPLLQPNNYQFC
Chain of WEE1 (human) (P30291 whole entry, looked up): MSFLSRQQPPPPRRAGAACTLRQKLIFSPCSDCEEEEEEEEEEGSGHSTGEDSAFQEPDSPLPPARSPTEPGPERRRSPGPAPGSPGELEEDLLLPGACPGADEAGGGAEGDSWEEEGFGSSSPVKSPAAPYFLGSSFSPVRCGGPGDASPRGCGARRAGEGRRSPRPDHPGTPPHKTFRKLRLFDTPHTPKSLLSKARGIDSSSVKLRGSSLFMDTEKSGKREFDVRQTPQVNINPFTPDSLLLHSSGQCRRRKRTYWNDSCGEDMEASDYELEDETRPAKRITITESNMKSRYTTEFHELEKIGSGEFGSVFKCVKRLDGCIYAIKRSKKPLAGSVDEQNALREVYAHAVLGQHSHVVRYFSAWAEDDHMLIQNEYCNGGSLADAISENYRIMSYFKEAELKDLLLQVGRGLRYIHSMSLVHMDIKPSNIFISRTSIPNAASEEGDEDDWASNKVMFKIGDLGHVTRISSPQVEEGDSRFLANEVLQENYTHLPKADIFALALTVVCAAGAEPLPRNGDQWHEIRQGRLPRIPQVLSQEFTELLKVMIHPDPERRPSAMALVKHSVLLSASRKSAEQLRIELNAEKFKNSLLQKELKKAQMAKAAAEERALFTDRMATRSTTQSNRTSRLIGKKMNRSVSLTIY

SMILES | residual activity (EPHB4 (human)) | residual activity (WNK3 (human)) | residual activity (WEE1 (human)) | residual activity (STK38 (human)) | residual activity (PRKACG (human)) | residual activity (MAPK9 (human)) | residual activity (LRRK2 (human)) | residual activity (IKBKE (human)) | residual activity (IRAK4 (human)) | residual activity (CSNK1G1 (human)) | residual activity (PTK6 (human)) | residual activity (TSSK1B (human)) | residual activity (ULK3 (human)) | residual activity (EPHA7 (human)) | residual activity (CHEK1 (human)) | residual activity (NEK9 (human)) | residual activity (NTRK1 (human)) | residual activity (STK16 (human)) | residual activity (PHKG2 (human)) | residual activity (PRKACA (human)) | further results
O=C1C(Cl)=C(N2C(=O)CCC2=O)C(=O)c2ccccc21 | 98.7% | 96.4% | 93% | 102% | 95.1% | 93.6% | 103% | 99.6% | 89.1% | 147% | 94.8% | 104% | 102% | 106% | 111% | 98.3% | 97% | 100% | 100% | 88.8% | residual activity (MYO3B (human)): 112%; residual activity [1]: 135%; residual activity (PAK2 (human)): 104%; residual activity (CSF1R (human)): 102%; residual activity (ULK2 (human)): 108%; residual activity (EPHB3 (human)): 97%; residual activity (PRKD3 (human)): 88.2%; residual activity (FLT3 (human)): 108%; residual activity (PIM1 (human)): 100%; residual activity (NEK1 (human)): 90%; residual activity (STK3 (human)): 98.2%; residual activity (CDK9 CCNK (human)): 97.2%; residual activity (LTK (human)): 100%; residual activity (CDK3 CCNE1 (human)): 102%; residual activity (AKT2 (human)): 96.3%; residual activity (CDK4 CCND1 (human)): 103%; residual activity (PKN2 (human)): 108%; residual activity (EPHA8 (human)): 107%; residual activity (CSNK2A2 (human)): 100%; residual activity (MAP3K7 TAB1 (human)): 99.5%
CO[C@@H]1[C@H](N(C)C(=O)c2ccccc2)C[C@H]2O[C@]1(C)n1c3ccccc3c3c4c(c5c6ccccc6n2c5c31)C(=O)NC4 | 110% | 91.4% | 89.3% | 83.8% | 58.1% | 82.7% | 8.46% | 9.85% | 71.5% | 103% | 96.2% | 8.24% | 37% | 87.2% | 53% | 64.4% | 5.85% | 47.9% | 79.7% | 34% | residual activity (CAMK4 (human)): 103%; residual activity (MYO3B (human)): 53.7%; residual activity [1]: 92.7%; residual activity (PAK2 (human)): 66.6%; residual activity (CSF1R (human)): 6.65%; residual activity (ULK2 (human)): 95.7%; residual activity (PRKCE (human)): 10.7%; residual activity (EPHB3 (human)): 90.5%; residual activity (PIM1 (human)): 41.2%; residual activity (NEK1 (human)): 66.2%; residual activity (STK3 (human)): 1.93%; residual activity (CDK9 CCNK (human)): 71%; residual activity (LTK (human)): 50.1%; residual activity (CDK3 CCNE1 (human)): 81.9%; residual activity (PKN2 (human)): 11.4%; residual activity (EPHA8 (human)): 94.1%; residual activity (CSNK2A2 (human)): 87.8%
